Laboratory results taken from ChEMBL document CHEMBL1240402 (2010).
Activity calls are given as the source filed them. The rule behind the calls is not given here.

Columns and labels:
Assay type in all cases: functional
Clostridium perfringens [1] = assay: Antimicrobial activity against Clostridium perfringens LFM1 assessed as resistance breakpoint by DIN-standardized microdilution method
Clostridium perfringens [2] = assay: Antimicrobial activity against Clostridium perfringens LFM1 assessed as resistance breakpoint by DANMAP method
Clostridium perfringens [3] = assay: Antimicrobial activity against Clostridium perfringens LFM1 assessed as resistant breakpoint by EUCAST method

Compound | Activity (Clostridium perfringens [1]) | Activity (Clostridium perfringens [2]) | Activity (Clostridium perfringens [3]) | Activity (Clostridium perfringens [3]; record 2) [mg/L]
CCC[C@@H]1C[C@@H](C(=O)N[C@@H]([C@H]2O[C@H](SC)[C@H](O)[C@@H](O)[C@H]2O)[C@H](C)Cl)N(C)C1 | inactive |  |  | 
O=C(N[C@H](CO)[C@H](O)c1ccc([N+](=O)[O-])cc1)C(Cl)Cl |  | inactive |  | 
CC(=O)NC[C@H]1CN(c2ccc(N3CCOCC3)c(F)c2)C(=O)O1 [LINEZOLID] | >4 mg/L | >4 mg/L | inactive | >4
CC[C@H]1OC(=O)[C@H](C)[C@@H](O[C@H]2C[C@@](C)(OC)[C@@H](O)[C@H](C)O2)[C@H](C)[C@@H](O[C@@H]2O[C@H](C)C[C@H](N(C)C)[C@H]2O)[C@](C)(O)C[C@@H](C)C(=O)[C@H](C)[C@@H](O)[C@]1(C)O | inactive |  |  | 
CS(=O)(=O)c1ccc([C@@H](O)[C@@H](CF)NC(=O)C(Cl)Cl)cc1 [FLORFENICOL] |  | inactive |  | 
